Reference: PMC6378217, “The lysyl oxidase like 2/3 enzymatic inhibitor, PXS‐5153A, reduces crosslinks and ameliorates fibrosis” (Journal of Cellular and Molecular Medicine, 2018)

Tests used:
[1] = molecular target: Transporter, Norepinephrine (NET) (Homo sapiens, UniProt P23975); assay: Eurofins Hit Profiling Screen; type: binding; conditions: 10 μmol/L
[2] = test system: fibrotic marker genes in the liver; assay: CCl4-induced liver fibrosis: mRNA expression of fibrotic markers in whole liver homogenates; type: in vivo, Sprague Dawley rats; conditions: PXS-5153A treatment
Description: The study was performed by Pharmalegacy with approval from local ethics committee. Sprague Dawley rats were orally administered with 0.25 μL/g Carbon tetrachloride (CCl4) in olive oil solution, starting from day 0, 3 times per week for 6 weeks. Animals were killed 48 hours after the last CCl4 administration. PXS‐5153A was given by oral gavage after 3 weeks of CCl4 administration and continued throughout the remainder of the study at 3 mg/kg (low dose) or 10 mg/kg (high dose) once a day or 10 mg/kg (high dose) three times a week. Alanine aminotransferase (ALT) and aspartate aminotransferase (AST) levels were assessed in the plasma. One lobe of the liver tissue was fixed in 10% formalin, stained for Sirius red and the percentage coverage area was measured. The remainder of the liver was snap frozen and used for protein, hydroxyproline and crosslink analysis.
Total RNA was extracted with the PureLink RNA Mini Kit according to the manufacturer's instructions (Ambion), followed by the cDNA synthesis using SuperScript VILO cDNA Synthesis Kit (Life technologies). Gene expression was measured by the 2^−ΔΔCT method using ABI7500 (Applied Biosystems) with the ABI TaqMan primer sets as specified in the supporting information.
Data was normalised to expression of the internal quantitative control (GAPDH) and expressed as the fold-change compared to the Sham treatment group.

Histamine H1 = Histamine H1 (Homo sapiens, UniProt P35367); assay: Eurofins Hit Profiling Screen; type: binding; conditions: 10 μmol/L
Sequence of Histamine H1 (P35367 whole entry): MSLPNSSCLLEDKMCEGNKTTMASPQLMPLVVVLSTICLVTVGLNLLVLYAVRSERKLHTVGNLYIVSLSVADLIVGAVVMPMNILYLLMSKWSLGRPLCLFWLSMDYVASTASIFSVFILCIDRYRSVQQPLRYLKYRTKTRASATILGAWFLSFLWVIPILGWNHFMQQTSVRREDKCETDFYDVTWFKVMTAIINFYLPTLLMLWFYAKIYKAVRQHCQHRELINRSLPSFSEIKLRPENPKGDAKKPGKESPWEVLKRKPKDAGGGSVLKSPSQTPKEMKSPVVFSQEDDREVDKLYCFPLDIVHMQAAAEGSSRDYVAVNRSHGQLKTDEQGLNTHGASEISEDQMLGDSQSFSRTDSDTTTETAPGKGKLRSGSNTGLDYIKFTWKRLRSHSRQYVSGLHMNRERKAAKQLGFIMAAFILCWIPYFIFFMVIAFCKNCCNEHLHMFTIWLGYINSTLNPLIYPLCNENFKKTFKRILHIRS

Adenosine A2A = Adenosine A2A (Homo sapiens, UniProt P29274); assay: Eurofins Hit Profiling Screen; type: binding; conditions: 10 μmol/L
Sequence of Adenosine A2A (P29274 whole entry): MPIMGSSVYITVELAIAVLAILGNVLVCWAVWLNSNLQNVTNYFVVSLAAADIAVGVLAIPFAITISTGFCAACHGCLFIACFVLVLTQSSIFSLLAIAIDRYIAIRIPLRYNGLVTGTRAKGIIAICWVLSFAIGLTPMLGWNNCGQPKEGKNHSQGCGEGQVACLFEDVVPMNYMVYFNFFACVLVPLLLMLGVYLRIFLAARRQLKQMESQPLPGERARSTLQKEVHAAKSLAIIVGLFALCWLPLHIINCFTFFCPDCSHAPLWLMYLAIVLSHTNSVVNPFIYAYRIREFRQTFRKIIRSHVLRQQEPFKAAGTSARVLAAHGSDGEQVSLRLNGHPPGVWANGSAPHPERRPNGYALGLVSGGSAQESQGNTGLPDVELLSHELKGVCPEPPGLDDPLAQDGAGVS

Dopamine D1 = Dopamine D1 (Homo sapiens, UniProt P21728); assay: Eurofins Hit Profiling Screen; type: binding; conditions: 10 μmol/L
Sequence of Dopamine D1 (P21728 whole entry): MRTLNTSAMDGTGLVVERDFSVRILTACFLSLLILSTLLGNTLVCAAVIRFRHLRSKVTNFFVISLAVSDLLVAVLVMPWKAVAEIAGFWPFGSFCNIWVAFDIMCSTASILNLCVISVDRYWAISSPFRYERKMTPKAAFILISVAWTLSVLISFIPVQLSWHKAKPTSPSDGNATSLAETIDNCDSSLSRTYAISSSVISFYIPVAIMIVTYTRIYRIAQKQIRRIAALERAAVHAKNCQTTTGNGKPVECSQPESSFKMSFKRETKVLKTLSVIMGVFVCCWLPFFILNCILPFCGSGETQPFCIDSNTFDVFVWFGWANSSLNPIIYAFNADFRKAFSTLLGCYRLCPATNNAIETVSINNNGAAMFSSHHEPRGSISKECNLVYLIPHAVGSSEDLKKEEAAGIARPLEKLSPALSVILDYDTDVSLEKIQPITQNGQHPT

Recombinant human LOXL1 = molecular target: T1, Recombinant human LOXL1 (Homo sapiens, UniProt Q08397); assay: Amplex-Red fluorometric enzymatic activity assay, recombinant human LOXL1; type: biochemical; conditions: 30 minute pre-incubation; average of at least three experiments
T1 construct: made in house
T1 sequence (Q08397 96-574): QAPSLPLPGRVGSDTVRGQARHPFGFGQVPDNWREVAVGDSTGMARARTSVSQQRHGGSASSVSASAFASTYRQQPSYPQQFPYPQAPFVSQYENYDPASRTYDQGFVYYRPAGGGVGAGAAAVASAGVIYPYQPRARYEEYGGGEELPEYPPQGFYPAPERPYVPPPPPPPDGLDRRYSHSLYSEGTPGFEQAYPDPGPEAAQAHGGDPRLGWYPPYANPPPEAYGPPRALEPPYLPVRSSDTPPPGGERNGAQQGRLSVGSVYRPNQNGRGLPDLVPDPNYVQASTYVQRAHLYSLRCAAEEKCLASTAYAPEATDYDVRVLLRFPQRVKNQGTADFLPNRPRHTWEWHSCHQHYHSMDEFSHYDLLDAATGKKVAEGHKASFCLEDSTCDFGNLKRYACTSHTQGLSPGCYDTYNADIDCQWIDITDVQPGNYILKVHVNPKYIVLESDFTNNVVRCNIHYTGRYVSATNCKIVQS
Description: The measurement of the enzymatic activity of all lysyl oxidase family members was based on the detection of hydrogen peroxide with an Amplex‐Red oxidation assay, as described in Zhou et al26 Recombinant human semicarbazide sensitive amine oxidase (SSAO/VAP1), diamine oxidase (DAO) and monoamine oxidases A and B (MAO‐A and MAO‐B) assays were performed as previously described.27 For detailed enzymatic procedures, see supporting information.
The measurement of the enzymatic activity of all lysyl oxidase family members was based on the detection of hydrogen peroxide with an Amplex-Red oxidation assay, as described in Zhou et al.[1]; miniaturised in 384 well format, with the appropriate combination of substrate and assay buffer for each individual enzyme. After a 30 minute pre-incubation of the enzyme at 37 °C with the test compound (or with different incubation times for the time-dependency assay), one volume of reaction mixture containing 120 μM Amplex Red (AR) (Life Technologies), 1.5 U/mL horseradish peroxidase (HRP) (Sigma-Aldrich) and the specific substrate was added to each sample. The relative fluorescence units (RFU) were then measured every 2.5 minutes for 30 minutes at 37°C, excitation 565 nm and emission 590, on a BMG Clariostar Microplate Reader. […]

Adrenergic α1A = Adrenergic α1A (Rattus norvegicus, UniProt P43140); assay: Eurofins Hit Profiling Screen; type: binding; conditions: 10 μmol/L
Sequence of Adrenergic α1A (P43140 whole entry): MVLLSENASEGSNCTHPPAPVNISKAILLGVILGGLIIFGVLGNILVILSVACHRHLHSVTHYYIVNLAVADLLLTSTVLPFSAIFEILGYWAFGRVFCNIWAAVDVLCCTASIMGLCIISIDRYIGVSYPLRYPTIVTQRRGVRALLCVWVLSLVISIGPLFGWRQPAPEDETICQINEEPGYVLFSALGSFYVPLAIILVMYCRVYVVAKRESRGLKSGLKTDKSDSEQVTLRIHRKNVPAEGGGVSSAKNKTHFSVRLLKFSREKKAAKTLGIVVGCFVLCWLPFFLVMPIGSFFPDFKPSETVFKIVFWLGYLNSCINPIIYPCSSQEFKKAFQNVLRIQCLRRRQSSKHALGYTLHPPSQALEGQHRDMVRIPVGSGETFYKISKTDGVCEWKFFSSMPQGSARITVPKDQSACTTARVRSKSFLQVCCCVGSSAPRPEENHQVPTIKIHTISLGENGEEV

Nicotinic Acetylcholine = assay: Eurofins Hit Profiling Screen; type: binding; conditions: 10 μmol/L
Adrenergic α2A = Adrenergic α2A (Homo sapiens, UniProt P08913); assay: Eurofins Hit Profiling Screen; type: binding; conditions: 10 μmol/L
Sequence of Adrenergic α2A (P08913 whole entry): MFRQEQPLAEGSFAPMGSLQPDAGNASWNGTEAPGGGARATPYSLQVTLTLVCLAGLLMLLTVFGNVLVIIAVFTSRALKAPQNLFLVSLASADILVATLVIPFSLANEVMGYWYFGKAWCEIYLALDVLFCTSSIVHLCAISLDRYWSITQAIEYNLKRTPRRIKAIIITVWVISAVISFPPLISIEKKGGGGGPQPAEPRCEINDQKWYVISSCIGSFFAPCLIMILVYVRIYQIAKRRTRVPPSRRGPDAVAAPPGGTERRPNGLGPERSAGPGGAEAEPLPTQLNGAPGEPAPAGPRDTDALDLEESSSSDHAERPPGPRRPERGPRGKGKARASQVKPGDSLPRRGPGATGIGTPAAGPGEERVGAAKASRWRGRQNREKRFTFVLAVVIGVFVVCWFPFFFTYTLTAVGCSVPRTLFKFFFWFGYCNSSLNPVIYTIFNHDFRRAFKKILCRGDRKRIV

[3] = test system: Glutamate, NMDA, Phencyclidine; assay: Eurofins Hit Profiling Screen; type: binding; conditions: 10 μmol/L
Adenosine A1 = Adenosine A1 (Homo sapiens, UniProt P30542); assay: Eurofins Hit Profiling Screen; type: binding; conditions: 10 μmol/L
Sequence of Adenosine A1 (P30542 whole entry): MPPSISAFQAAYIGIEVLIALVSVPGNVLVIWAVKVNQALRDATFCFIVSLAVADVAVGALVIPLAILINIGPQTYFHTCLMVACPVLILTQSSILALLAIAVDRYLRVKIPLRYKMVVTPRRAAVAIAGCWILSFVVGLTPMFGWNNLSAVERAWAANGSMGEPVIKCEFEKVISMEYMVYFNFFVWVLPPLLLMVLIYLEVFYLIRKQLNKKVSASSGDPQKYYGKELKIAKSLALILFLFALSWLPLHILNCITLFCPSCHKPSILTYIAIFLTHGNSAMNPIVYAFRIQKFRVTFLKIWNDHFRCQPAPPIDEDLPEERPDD

GABAA, Muscimol, Central = assay: Eurofins Hit Profiling Screen; type: binding; conditions: 10 μmol/L
LOXL2 = molecular target: T2, LOXL2 (Homo sapiens, UniProt Q9Y4K0); assay: Substrate competition (putrescine), LOXL2; type: biochemical; conditions: increasing concentrations of the substrate
T2 sequence (Q9Y4K0 26-774): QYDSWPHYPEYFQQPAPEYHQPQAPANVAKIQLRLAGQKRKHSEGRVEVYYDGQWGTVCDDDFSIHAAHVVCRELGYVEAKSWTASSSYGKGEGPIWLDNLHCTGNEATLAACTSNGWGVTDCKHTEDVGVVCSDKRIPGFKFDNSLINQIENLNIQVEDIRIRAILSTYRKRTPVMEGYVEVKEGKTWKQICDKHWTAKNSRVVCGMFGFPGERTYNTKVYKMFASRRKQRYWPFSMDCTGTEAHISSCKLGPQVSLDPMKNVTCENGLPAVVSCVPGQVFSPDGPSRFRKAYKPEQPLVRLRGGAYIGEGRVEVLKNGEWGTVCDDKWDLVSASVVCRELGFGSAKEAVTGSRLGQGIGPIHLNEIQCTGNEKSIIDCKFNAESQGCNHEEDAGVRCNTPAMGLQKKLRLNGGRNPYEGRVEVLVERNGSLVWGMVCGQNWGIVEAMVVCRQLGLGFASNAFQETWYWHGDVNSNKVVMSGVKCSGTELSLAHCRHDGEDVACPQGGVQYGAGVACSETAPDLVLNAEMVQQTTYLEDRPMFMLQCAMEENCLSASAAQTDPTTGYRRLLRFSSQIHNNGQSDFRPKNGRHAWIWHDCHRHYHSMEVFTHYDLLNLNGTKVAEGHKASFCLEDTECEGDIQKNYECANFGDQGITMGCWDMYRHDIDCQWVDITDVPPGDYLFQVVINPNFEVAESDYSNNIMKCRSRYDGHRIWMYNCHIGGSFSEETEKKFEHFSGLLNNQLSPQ
Description: The measurement of the enzymatic activity of all lysyl oxidase family members was based on the detection of hydrogen peroxide with an Amplex-Red oxidation assay, as described in Zhou et al.[1]; miniaturised in 384 well format, with the appropriate combination of substrate and assay buffer for each individual enzyme. After a 30 minute pre-incubation of the enzyme at 37 °C with the test compound (or with different incubation times for the time-dependency assay), one volume of reaction mixture containing 120 μM Amplex Red (AR) (Life Technologies), 1.5 U/mL horseradish peroxidase (HRP) (Sigma-Aldrich) and the specific substrate was added to each sample. The relative fluorescence units (RFU) were then measured every 2.5 minutes for 30 minutes at 37°C, excitation 565 nm and emission 590, on a BMG Clariostar Microplate Reader. All the substrates were used at concentrations corresponding to their Km towards the corresponding enzyme, or with a range of different concentrations for the substrate competition experiments.
The measurement of substrate competition was based on the release of hydrogen peroxide as previously described. The target enzyme was incubated with the inhibitor, and differing concentrations of the substrate (putrescine) in reaction mixture and measured.

Sequence of Transporter, Norepinephrine (NET) (P23975 whole entry): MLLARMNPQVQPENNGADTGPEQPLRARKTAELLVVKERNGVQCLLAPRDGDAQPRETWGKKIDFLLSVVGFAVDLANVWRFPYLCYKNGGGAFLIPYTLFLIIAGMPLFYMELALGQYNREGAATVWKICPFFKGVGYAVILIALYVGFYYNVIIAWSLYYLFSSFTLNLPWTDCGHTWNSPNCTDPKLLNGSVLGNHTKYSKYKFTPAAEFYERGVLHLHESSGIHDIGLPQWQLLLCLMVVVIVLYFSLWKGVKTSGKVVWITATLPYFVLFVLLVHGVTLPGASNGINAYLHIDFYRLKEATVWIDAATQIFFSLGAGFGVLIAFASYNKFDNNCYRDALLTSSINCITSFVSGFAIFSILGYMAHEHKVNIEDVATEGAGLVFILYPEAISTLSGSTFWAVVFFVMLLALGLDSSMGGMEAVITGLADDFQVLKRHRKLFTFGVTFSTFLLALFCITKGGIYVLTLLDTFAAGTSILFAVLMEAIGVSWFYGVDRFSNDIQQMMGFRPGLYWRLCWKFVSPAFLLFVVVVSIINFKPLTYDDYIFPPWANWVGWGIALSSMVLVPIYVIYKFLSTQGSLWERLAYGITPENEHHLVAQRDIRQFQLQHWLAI

Cc1c(-c2cccc(S(=O)(=O)N(C)C)c2)c2ncccc2n1C/C(F)=C/CN.Cl.Cl [PXS-5153A]
% inhibition [1]: 15%
induction of key fibrotic marker genes in the liver [2]: suppressed the induction
% inhibition (Histamine H1): 23%
% inhibition (Adenosine A2A): 0%
% inhibition (Dopamine D1): 6%
IC50 (Recombinant human LOXL1): 1410 nM
pIC50 ± SD (Recombinant human LOXL1): 5.8 ± 0.23
% inhibition (Adrenergic α1A): 20%
% inhibition (Nicotinic Acetylcholine): 16%
% inhibition (Adrenergic α2A): 97%
% inhibition [3]: 3%
% inhibition (Adenosine A1): 9%
% inhibition (GABAA, Muscimol, Central): -7%
substrate competition (LOXL2): in a competitive manner
